According to PubChem BioAssay AID1845217 (Molecular Pharmacology Branch, DTP, NCI, 2023):

System: VA-ES-BJ tumor spheroid viability
Assay: Anticancer human tumor VA-ES-BJ cell line growth inhibition;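 also: spheroids exposed to compounds for seven days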;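 as to viability, T/C: percent of DMSO vehicle control viability so 100% = untreated growth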
Details: spheroids with HUVEC and MSC; for IC50: curve of first compound; for viability, T/C: stronger effect = lower value
Outline: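 Complex tumor spheroids combined malignant cells with endothelial cells and mesenchymal stem cells. DNA-damaging drugs and DNA repair inhibitors were tested alone and in combination, at half-log dilutions down from clinical Cmax (top 10 microM if Cmax unknown), 0.25% DMSO final.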

COc1ccc([C@@H](O)c2cc(-c3ncnc4cc(N5CCOCC5)ccc34)c(F)cc2Cl)nn1 + Cn1nnc2c(C(N)=O)ncn2c1=O
IC50 (second compound 1 µM): 477 nM
IC50 (second compound 3.16 µM): 574 nM
IC50 (second compound 10 µM): 602 nM
IC50 (second compound 31.6 µM): 623 nM
IC50 (second compound 100 µM): 547 nM
viability, T/C (second compound 1 µM, first compound 0.0316 µM): 94.9%
viability, T/C (second compound 1 µM, first compound 0.1 µM): 79.5%
viability, T/C (second compound 1 µM, first compound 0.316 µM): 56.8%
viability, T/C (second compound 1 µM, first compound 1 µM): 37.9%
viability, T/C (second compound 1 µM, first compound 3.16 µM): 15.8%
viability, T/C (second compound 1 µM, first compound 10 µM): 7.65%
viability, T/C (second compound 3.16 µM, first compound 0.0316 µM): 92.4%
viability, T/C (second compound 3.16 µM, first compound 0.1 µM): 89.6%
viability, T/C (second compound 3.16 µM, first compound 0.316 µM): 70%
viability, T/C (second compound 3.16 µM, first compound 1 µM): 31%
viability, T/C (second compound 3.16 µM, first compound 3.16 µM): 13.2%
viability, T/C (second compound 3.16 µM, first compound 10 µM): 7.49%
viability, T/C (second compound 10 µM, first compound 0.0316 µM): 92.5%
viability, T/C (second compound 10 µM, first compound 0.1 µM): 84.4%
viability, T/C (second compound 10 µM, first compound 0.316 µM): 63.5%
viability, T/C (second compound 10 µM, first compound 1 µM): 41.5%
viability, T/C (second compound 10 µM, first compound 3.16 µM): 11.4%
viability, T/C (second compound 10 µM, first compound 10 µM): 7.61%
viability, T/C (second compound 31.6 µM, first compound 0.0316 µM): 85.6%
viability, T/C (second compound 31.6 µM, first compound 0.1 µM): 83%
viability, T/C (second compound 31.6 µM, first compound 0.316 µM): 65.8%
viability, T/C (second compound 31.6 µM, first compound 1 µM): 38.8%
viability, T/C (second compound 31.6 µM, first compound 3.16 µM): 16.1%
viability, T/C (second compound 31.6 µM, first compound 10 µM): 7.46%
viability, T/C (second compound 100 µM, first compound 0.0316 µM): 96.2%
viability, T/C (second compound 100 µM, first compound 0.1 µM): 98.1%
viability, T/C (second compound 100 µM, first compound 0.316 µM): 61.5%
viability, T/C (second compound 100 µM, first compound 1 µM): 35%
viability, T/C (second compound 100 µM, first compound 3.16 µM): 13.9%
viability, T/C (second compound 100 µM, first compound 10 µM): 8.08%

Cc1sc2c(c1C)C(c1ccc(Cl)cc1)=NC(CC(=O)Nc1ccc(O)cc1)c1nnc(C)n1-2 (stereo not given) + CC[C@@]1(O)C(=O)OCc2c1cc1n(c2=O)Cc2cc3c(CN(C)C)c(O)ccc3nc2-1
IC50 (second compound 0.003 µM): 101 nM
IC50 (second compound 0.00949 µM): 45.4 nM
IC50 (second compound 0.03 µM): < 9.49 nM
IC50 (second compound 0.0949 µM): < 9.49 nM
IC50 (second compound 0.3 µM): < 9.49 nM
viability, T/C (second compound 0.003 µM, first compound 0.00949 µM): 78.5%
viability, T/C (second compound 0.003 µM, first compound 0.03 µM): 75.2%
viability, T/C (second compound 0.003 µM, first compound 0.0949 µM): 47%
viability, T/C (second compound 0.003 µM, first compound 0.3 µM): 34.7%
viability, T/C (second compound 0.003 µM, first compound 0.949 µM): 23.3%
viability, T/C (second compound 0.003 µM, first compound 3 µM): 19%
viability, T/C (second compound 0.00949 µM, first compound 0.00949 µM): 66.1%
viability, T/C (second compound 0.00949 µM, first compound 0.03 µM): 55.6%
viability, T/C (second compound 0.00949 µM, first compound 0.0949 µM): 40.1%
viability, T/C (second compound 0.00949 µM, first compound 0.3 µM): 28.6%
viability, T/C (second compound 0.00949 µM, first compound 0.949 µM): 18.4%
viability, T/C (second compound 0.00949 µM, first compound 3 µM): 13.5%
viability, T/C (second compound 0.03 µM, first compound 0.00949 µM): 30.7%
viability, T/C (second compound 0.03 µM, first compound 0.03 µM): 33.7%
viability, T/C (second compound 0.03 µM, first compound 0.0949 µM): 23.1%
viability, T/C (second compound 0.03 µM, first compound 0.3 µM): 13.3%
viability, T/C (second compound 0.03 µM, first compound 0.949 µM): 5.6%
viability, T/C (second compound 0.03 µM, first compound 3 µM): 5.34%
viability, T/C (second compound 0.0949 µM, first compound 0.00949 µM): 5.99%
viability, T/C (second compound 0.0949 µM, first compound 0.03 µM): 5.36%
viability, T/C (second compound 0.0949 µM, first compound 0.0949 µM): 5.41%
viability, T/C (second compound 0.0949 µM, first compound 0.3 µM): 4.64%
viability, T/C (second compound 0.0949 µM, first compound 0.949 µM): 4.96%
viability, T/C (second compound 0.0949 µM, first compound 3 µM): 3.57%
viability, T/C (second compound 0.3 µM, first compound 0.00949 µM): 5.26%
viability, T/C (second compound 0.3 µM, first compound 0.03 µM): 5.21%
viability, T/C (second compound 0.3 µM, first compound 0.0949 µM): 4.85%
viability, T/C (second compound 0.3 µM, first compound 0.3 µM): 4.65%
viability, T/C (second compound 0.3 µM, first compound 0.949 µM): 4.55%
viability, T/C (second compound 0.3 µM, first compound 3 µM): 3.36%
